Patent US12371454B2, “Cyclic peptide compound having Kras inhibitory action” (priority 2019, dated 2025)
Starred links: 1 amine or outer side, 2 acyl side, 3 side chain; linkers in the order of their positions; H or OH if unused. Positions of bridges follow the written chain, without caps; N, C: chain ends. Non-standard residues stand in square brackets, D forms with d. Residues, ends and D or L forms follow the SMILES beside them. *: point of attachment. hPhe(3-Cl-4-CF3) = N[C@@H](CCc1ccc(C(F)(F)F)c(Cl)c1)C(=O)O; hPhe(3-F,4-CF3) = N[C@@H](CCc1ccc(C(F)(F)F)c(F)c1)C(=O)O; NMePhe(4-CF3) = CN[C@@H](Cc1ccc(C(F)(F)F)cc1)C(=O)O; hPhe(4-CF3) = N[C@@H](CCc1ccc(C(F)(F)F)cc1)C(=O)O; NMePhe(4-Cl) = CN[C@@H](Cc1ccc(Cl)cc1)C(=O)O; NMedβ3hAla = C[C@H](CC(=O)[*:2])N(C)[*:1]; NMeAla(cPent) = CN[C@@H](CC1CCCC1)C(=O)O; NMePhe(2-F) = CN[C@@H](Cc1ccccc1F)C(=O)O; X79 = CC(C)CCOC[C@H](CC(=O)[*:2])N[*:1]; NMeGly(cPent) = CN[C@H](C(=O)O)C1CCCC1; Pro(4,4-F2) = O=C(O)[C@@H]1CC(F)(F)CN1; NMeCha = CN[C@@H](CC1CCCCC1)C(=O)O; NMeF = CN[C@@H](Cc1ccccc1)C(=O)O; NMeI = CC[C@H](C)[C@H](NC)C(=O)O; NMeD = CN[C@@H](CC(=O)O)C(=O)O; CH2CONHtBu = CC(C)(C)NC(=O)C*; NMeL = CN[C@@H](CC(C)C)C(=O)O; NMeV = CN[C@H](C(=O)O)C(C)C; d(β3hA) = C[C@@H](N)CC(=O)O; NMeS = CN[C@@H](CO)C(=O)O; NMeA = CN[C@@H](C)C(=O)O; Piperidide = C1CCN(*)CC1; Pyrrolidide = C1CCN(*)C1; dNMeA = CN[C@H](C)C(=O)O; Ac5c = NC1(C(=O)O)CCCC1; Aze = O=C(O)[C@@H]1CCN1; Sar = CNCC(=O)O; Propyl = CCC*

biological target: T1, Kras and SOS1 (biotin-tagged human Kras loaded with GDP, His-tagged human SOS1) (Homo sapiens, UniProt P01116, G12D); assay: Protein-protein interaction inhibition between Kras and SOS1 (KrasGl2D-SOS PPI) using AlphaScreen; type: binding; details: AlphaScreen; biotin-tagged human Kras loaded with GDP, His-tagged human SOS1; read-out: KRAS G12D-SOS PPI IC50
T1 construct: made in house; host or cells: E. coli (stated for Kras only)
Summary of the method: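 Energy transfer from nickel-chelate donor beads bound to His-SOS1 to streptavidin acceptor beads bound to biotin-Kras, expressed in E. coli and loaded with GDP after purification, was monitored. Donors were excited at 680 nm; singlet oxygen reaching acceptors gave emission read at 520-620 nm.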

T1 sequence (P01116 1-188 isoform P01116-2 G12D): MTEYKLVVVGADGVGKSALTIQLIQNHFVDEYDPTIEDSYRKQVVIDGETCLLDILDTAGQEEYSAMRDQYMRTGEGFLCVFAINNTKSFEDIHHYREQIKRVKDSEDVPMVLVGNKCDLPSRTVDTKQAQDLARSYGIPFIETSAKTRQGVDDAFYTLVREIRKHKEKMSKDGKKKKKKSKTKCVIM

In order of rising IC50:
1. CCCOC[C@H]1C(=O)N(C)CC(=O)N[C@@H](CCc2ccc(C(F)(F)F)c(F)c2)C(=O)N2CCC[C@H]2C(=O)NC2(CCCC2)C(=O)N(C)[C@@H](C2CCCC2)C(=O)N(C)[C@H](C(=O)N2CCCC2)CC(=O)N(C)[C@@H](CC(C)C)C(=O)N[C@@H]([C@@H](C)CC)C(=O)N(C)[C@@H](C)C(=O)N2CC[C@H]2C(=O)N1C [Compound 987] ([NMeL]I[NMeA][Aze][NMeS](Propyl)[Sar][hPhe(3-F,4-CF3)]P[Ac5c][NMeGly(cPent)][NMeD]-Pyrrolidide; lactam N-11)  0.96 nM
2. CC[C@H](C)[C@@H]1NC(=O)[C@H](CC(C)C)N(C)C(=O)C[C@@H](C)N(C)C(=O)[C@H]([C@@H](C)CC)N(C)C(=O)C2(CCCC2)NC(=O)[C@@H]2CC(F)(F)CN2C(=O)[C@H](CCc2ccc(C(F)(F)F)c(Cl)c2)NC(=O)CN(C)C(=O)[C@H](Cc2ccc(C(F)(F)F)cc2)N(C)C(=O)CN(C)C(=O)CN(C)C1=O [Compound 1003] (cyclo([Ac5c][NMeI][NMedβ3hAla][NMeL]I[Sar][Sar][NMePhe(4-CF3)][Sar][hPhe(3-Cl-4-CF3)][Pro(4,4-F2)]))  8.4 nM
3. CC[C@H](C)[C@@H]1NC(=O)[C@H](C)N(C)C(=O)C[C@@H](C)NC(=O)[C@H](C(C)C)N(C)C(=O)[C@H](Cc2ccccc2)N(C)C(=O)[C@H](CC(C)C)N(C)C(=O)[C@H](CCc2ccc(C(F)(F)F)c(Cl)c2)NC(=O)CN(C)C(=O)[C@H](Cc2ccc(Cl)cc2)N(C)C(=O)[C@@H]2CCN2C(=O)CN(C)C1=O [Compound 994] (cyclo([Aze][NMePhe(4-Cl)][Sar][hPhe(3-Cl-4-CF3)][NMeL][NMeF][NMeV][d(β3hA)][NMeA]I[Sar]))  11 nM
4. CC[C@H](C)[C@@H]1NC(=O)[C@H](CC(C)C)N(C)C(=O)C[C@@H](C(=O)N(C)C)N(C)C(=O)[C@H](C2CCCC2)N(C)C(=O)[C@H](C)NC(=O)[C@H](C)N(C)C(=O)[C@H](CCc2ccc(C(F)(F)F)c(Cl)c2)NC(=O)CN(C)C(=O)[C@H](CC2CCCCC2)N(C)C(=O)[C@@H]2CCN2C(=O)[C@H](C)N(C)C1=O [Compound 993] ([NMeL]I[NMeA][Aze][NMeCha][Sar][hPhe(3-Cl-4-CF3)][NMeA]A[NMeGly(cPent)][NMeD]-NMe2; lactam N-11)  16 nM
5. CC[C@H](C)[C@@H]1NC(=O)[C@H](CC(C)C)N(C)C(=O)C[C@@H](C(=O)N2CCCCC2)N(C)C(=O)[C@H](C(C)C)N(C)C(=O)C2(CCCC2)NC(=O)[C@@H]2CCCN2C(=O)[C@H](CCc2ccc(C(F)(F)F)c(Cl)c2)NC(=O)CN(C)C(=O)[C@H](CC2CCCCC2)N(C)C(=O)[C@@H]2CCN2C(=O)[C@H](COCC(=O)NC(C)(C)C)N(C)C1=O [Compound 998] ([NMeL]I[NMeS](CH2CONHtBu)[Aze][NMeCha][Sar][hPhe(3-Cl-4-CF3)]P[Ac5c][NMeV][NMeD]-Piperidide; lactam N-11)  17 nM
6. CC[C@H](C)[C@@H]1NC(=O)[C@H](C)NC(=O)C[C@@H](C(=O)N2CCCC2)NC(=O)[C@H](CC(C)C)N(C)C(=O)[C@H](Cc2ccccc2)N(C)C(=O)[C@H](CC(C)C)NC(=O)[C@H](CCc2ccc(C(F)(F)F)cc2)NC(=O)CN(C)C(=O)[C@H](Cc2ccc(Cl)cc2)N(C)C(=O)CN(C)C(=O)CN(C)C1=O [Compound 989] (AI[Sar][Sar][NMePhe(4-Cl)][Sar][hPhe(4-CF3)]L[NMeF][NMeL]D-Pyrrolidide; lactam N-11)  34 nM
7. CC[C@H](C)[C@@H]1NC(=O)[C@H](CC(C)C)N(C)C(=O)C[C@@H](C)N(C)C(=O)[C@H](CC2CCCC2)N(C)C(=O)C2(CCCC2)NC(=O)[C@@H]2CCCN2C(=O)[C@H](CCc2ccc(C(F)(F)F)c(Cl)c2)NC(=O)CN(C)C(=O)[C@H](CC2CCCCC2)N(C)C(=O)CN(C)C(=O)CN(C)C1=O [Compound 991] (cyclo([Ac5c][NMeAla(cPent)][NMedβ3hAla][NMeL]I[Sar][Sar][NMeCha][Sar][hPhe(3-Cl-4-CF3)]P))  76 nM
8. CC[C@H](C)[C@@H]1NC(=O)[C@H](C)N(C)C(=O)C[C@@H](C)NC(=O)[C@H](C2CCCC2)N(C)C(=O)C2(CCCC2)NC(=O)[C@@H]2CCCN2C(=O)[C@H](CCc2ccc(C(F)(F)F)c(Cl)c2)NC(=O)[C@@H](C)N(C)C(=O)[C@H](Cc2ccccc2F)N(C)C(=O)[C@@H]2CCN2C(=O)[C@H](C)N(C)C1=O [Compound 990] (cyclo([Ac5c][NMeGly(cPent)][d(β3hA)][NMeA]I[NMeA][Aze][NMePhe(2-F)][dNMeA][hPhe(3-Cl-4-CF3)]P))  83 nM
9. CC[C@H](C)[C@@H]1NC(=O)[C@H](CC(C)C)N(C)C(=O)C[C@@H](COCCC(C)C)NC(=O)[C@H](C(C)C)N(C)C(=O)C2(CCCC2)NC(=O)[C@@H]2CCCN2C(=O)[C@H](CCc2ccc(C(F)(F)F)c(Cl)c2)NC(=O)CN(C)C(=O)[C@H](CC2CCCCC2)N(C)C(=O)CN(C)C(=O)CN(C)C1=O [Compound 992] (cyclo([Ac5c][NMeV][X79][NMeL]I[Sar][Sar][NMeCha][Sar][hPhe(3-Cl-4-CF3)]P))  180 nM
